{
  "source": "paper PMC10023664",
  "about": "“Hiat1 as a new transporter involved in ammonia regulation” (Scientific Reports, 2023)",
  "system": "Carcinus maenas Hiat1 (CmHiat1)",
  "conditions": "0.5-20 mM NH4Cl in OR2 bath; room temperature; net flux of whole oocyte, not sham-subtracted (endogenous NH4+ uptake present)",
  "data": [
    {"smiles": "N", "note": "[NH4^+]", "values": [
      {"measurement": "Km", "value": 2300, "unit": "µM"}
    ]}
  ]
}
